Results reported in the Kinase Knowledgebase extract (Sharma et al. 2016).
Values joined by “and” are separate entries in the source; they are usually repeats but may differ in a detail not shown here. Equal entries are not always repeated.

Target: MAPK14 (human) (UniProt Q16539)
Experiment: Enzyme Assay

MAPK14 (human), sequence (Q16539 whole entry, looked up): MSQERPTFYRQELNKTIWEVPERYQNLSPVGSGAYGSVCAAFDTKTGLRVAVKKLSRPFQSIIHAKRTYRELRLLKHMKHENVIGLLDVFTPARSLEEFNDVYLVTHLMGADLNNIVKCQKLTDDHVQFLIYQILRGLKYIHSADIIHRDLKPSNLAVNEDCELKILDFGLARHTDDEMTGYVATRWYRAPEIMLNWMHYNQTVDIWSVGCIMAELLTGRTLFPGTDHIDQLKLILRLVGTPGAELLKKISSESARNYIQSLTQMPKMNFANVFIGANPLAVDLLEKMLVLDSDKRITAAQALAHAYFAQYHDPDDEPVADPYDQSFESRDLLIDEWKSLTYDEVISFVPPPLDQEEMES

SMILES	Ki	Kd [µM]
CC(C)(C)c1cc(NC(=O)Nc2cccc3ccccc23)n(-c2cccc(C(=O)NC3CCN(CCN4CCOCC4)CC3)c2)n1	0.885 µM	
COCCCN1CCC(NC(=O)c2cccc(-n3nc(C(C)(C)C)cc3NC(=O)Nc3cccc4ccccc34)c2)CC1	0.336 µM	
CC(C)(C)c1cc(NC(=O)Nc2cccc3ccccc23)n(-c2cccc(C(=O)N(CCCN)C3CCCCC3)c2)n1	0.089 µM	
CC(C)(C)c1cc(NC(=O)Nc2cccc3ccccc23)n(-c2cccc(C(=O)NCCNc3ccccc3)c2)n1	0.433 µM	
CC(C)CN(CCCN)C(=O)c1cccc(-n2nc(C(C)(C)C)cc2NC(=O)Nc2cccc3ccccc23)c1	0.312 µM	
CC(C)CC(CNC(=O)c1cccc(-n2nc(C(C)(C)C)cc2NC(=O)Nc2cccc3ccccc23)c1)C(N)=O (stereo not given)	0.786 µM	
CC(C)(C)c1cc(NC(=O)Nc2cccc3ccccc23)n(-c2cccc(C(=O)NCc3ccncn3)c2)n1	0.327 µM	
CCN(CCN(C)C)C(=O)c1cccc(-n2nc(C(C)(C)C)cc2NC(=O)Nc2cccc3ccccc23)c1	0.735 µM	
CN1CCN(CCNC(=O)c2cccc(-n3nc(C(C)(C)C)cc3NC(=O)Nc3cccc4ccccc34)c2)CC1	0.14 µM	
CC(C)(C)c1cc(NC(=O)Nc2cccc3ccccc23)n(-c2cccc(C(=O)NCCCN3CCOCC3)c2)n1	0.291 µM	
CC(C)[C@H](CO)CNC(=O)c1cccc(-n2nc(C(C)(C)C)cc2NC(=O)Nc2cccc3ccccc23)c1	0.471 µM	
CC(C)(C)c1cc(NC(=O)Nc2cccc3ccccc23)n(-c2cccc(C(=O)NCCCN3CCCC3)c2)n1	0.301 µM	
CC(C)(C)c1cc(NC(=O)Nc2cccc3ccccc23)n(-c2cccc(C(=O)N[C@@H]3CS(=O)(=O)C[C@H]3O)c2)n1	0.112 µM	
CC(C)(C)c1cc(NC(=O)Nc2cccc3ccccc23)n(-c2cccc(C(=O)NCC#N)c2)n1	0.25 µM and 0.252 µM	0.055
